Data set [1] concerns human embryonic stem (hES) cell line H1. The following applies: MCDB-131 with 3.7 g/l versus 1 g/l bicarbonate.
Method: Cells of the human embryonic stem (hES) cell line H1 at passage 46 (p46) were seeded as cell colonies to [sequence] (1:30 dilution) coated dishes at a 1 to 3 passage ratio by lifting cells with Dispase (Catalog #17105-041, Invitrogen, CA) and plating the cells in MEF-CM with 20 ng/ml of FGF2. The media was changed daily with fresh MEF-CM with 20 ng/ml of FGF2, until initiation of differentiation into definitive endoderm (DE) as follows: • a. MCDB-131 (Catalog #10372-019, Invitrogen, CA) medium supplemented with 2% fatty acid-free BSA (Catalog #68700, Proliant, IA), 1× GlutaMax™ (Catalog #35050-079, Invitrogen, Ca) and 100 ng/ml activin A (R&D Systems, MN) plus 20 ng/ml WNT-3a (Catalog #1324-WN-002, R&D Systems, MN) for one day, followed by treatment with MCDB-131 supplemented with 2% BSA, GlutaMax™, and 100 ng/ml activin A each day for an additional three days; or • b.
At day 4, samples were collected for FACS and gene expression analysis using real-time PCR, and counted by ViaCount® (Guava®, Millipore, Billerica, Mass.).
Data set [2] deals with human embryonic stem cell line H1. Nature of the data set: Differentiation of H1 cells to definitive endoderm in MCDB-131 with added glucose; FACS, real-time PCR, ViaCount at day 4 (Example 2). Format: cell-based. The method, then:
Cells of the human embryonic stem cell line H1 at passage 41 (p41) were lifted by TrypLE (Catalog #12604-013, Invitrogen, CA) and seeded as single cells at a density of 100,000 cells/cm^2 on MATRIGEL® coated dishes (1:30 dilution) in MEF-CM (mouse embryonic fibroblast conditioned media) supplemented with 20 ng/ml of FGF2 (Catalog #100-18B, PeproTech, NJ) and 10 μM of Y-27632 (a Rho Kinase Inhibitor, Catalog #Y0503, Sigma, MO). […] The cultures were differentiated into cells expressing markers characteristic of the definitive endoderm lineage 72 hrs post as follows: • a. […] MCDB-131 medium supplemented with 2% BSA, sodium bicarbonate, GlutaMax™, 100 ng/ml activin A, and either 0, 5, 10, 15, 20, or 25 mM of glucose for an additional three days.
However, these increases in cell number and CXCR4 were offset by a reduction in total cell viability (FIG. 2B).
These clustered cells were subsequently less evenly dispersed on the culture surface than populations of cells cultured in the basal level of glucose.

The test system is the same in data set [3]. Nature of the data set: Differentiation of H1 cells to definitive endoderm in DMEM with low or high glucose; flow cytometry and qRT-PCR (Example 2). Format: cell-based. The following applies: for cells positive for CXCR4: flow cytometry. The method, then: Similar glucose related effects on differentiation were also observed in cultures differentiated with DMEM containing either 5.5 mM (low) or 25 mM (high) glucose concentration (Cat #s 10567-014 and 21063-029, Invitrogen, CA). As described above, for controls, cells were seeded as single cells, cultured 3 days in MEF conditioned media and differentiated in MCDB-131 with 5.5 mM or 25 mM glucose supplemented media, or in DMEM high or low glucose media supplemented with 2% fatty acid free BSA, 100 ng/ml activin A, and 20 ng/ml WNT-3a on the first day, and 2% fatty acid free BSA and 100 ng/ml activin A for the next three days with daily media change. Similar to results with MCDB-131 media, where elevated glucose inhibits definitive endoderm formation as compared to low glucose media treated cells, we observed that a high glucose concentration in DMEM reduced hES cell differentiation. By flow cytometry, following differentiation to definitive endoderm, 88.6% of cells were positive for CXCR4 in media containing 5.5 mM glucose versus 80% CXCR4 positive cells in media containing 25 mM glucose. Additionally, markers of differentiation to definitive endoderm as measured by qRT-PCR (SOX17) were decreased while markers of undifferentiated cells (OCT4) or alternative differentiation fates (CDX2) were increased (FIG. 5) in cells fed media containing high glucose versus those fed low glucose media. This effect was due at least in part to the pH of the media as we noted that over the four day differentiation, media pH dropped after 48 hours of differentiation day. Furthermore, the higher the starting and ending pH of culture media (8.1>pH>7.6) (FIG. 6) during definitive endoderm formation, the more complete the conversion to definitive endoderm.
A general note: Flow cytometry measures light scatter and fluorescence of single cells or particles in a stream.

[4] abbreviates: increased glucose concentration, clustered cells, real-time PCR.
Setting [5] is: high glucose versus low glucose media.

SMILES strings stand for the structures.

Regarding `O=C([O-])O.[Na+]` [Sodium Bicarbonate], in data set [1], the CD9 expression levels result is reported as “lower” and the CXCR4 expression result is listed as “significantly higher”.

Consider `O=C[C@H](O)[C@@H](O)[C@H](O)[C@H](O)CO` [glucose], for which the CXCR4 expression result in data set [2] (additional 5 mM glucose (10.5 mM final), MCDB-131, day 4) was “modest increase”. Also, the cell number entry in data set [2] (additional 10 mM glucose (15.5 mM final), MCDB-131, day 4) was “modest increase”. For the same compound, the SOX17 positive cells result in data set [2] (basal level of glucose (5.5 mM), MCDB-131) is given as “almost every cell in the culture was SOX17 positive”. Moreover, in data set [2] (setting [4]), the CD9 expression result was “slight increase”, the “MNX1 (HLXB9) gene expression” value is given as “decrease”, the OCT4 expression entry was “slight increase” and the SOX7 expression result is “slight increase”. In addition, in data set [2] (supplemented glucose (10.5 to 15.5 mM final), MCDB-131, day 4), the total cell viability result is “reduction”. Besides, in data set [3] (setting [5]), the “CDX2 expression (qRT-PCR)” value was “increased”, the “OCT4 expression (qRT-PCR)” value is on record as “increased” and the “SOX17 expression (qRT-PCR)” value was “decreased”. The “cells positive for CXCR4” value in data set [3] (media containing 5.5 mM glucose) is 88.6%. Besides, the “cells positive for CXCR4” value in data set [3] (media containing 25 mM glucose) was 80%.

Source of the values: patent publication US9951314B2, “Differentiation of human embryonic stem cells” (Janssen Biotech, Inc., priority 2010, dated 2018).
